The text below walks through data of publication PMC4219730 (PLoS ONE, 2014).

One series deals with SSTR in CH-157MN cells. The experiment in a line: Homologous competitive binding with [^125I]-somatostatin-28 in CH-157MN meningioma cells. Also on record: species or system human. To be noted: 0.5 nM [^125I]-somatostatin-28, 37°C, 1 hour, mean ± SEM, three independent experiments in triplicate, read-out: IC50 (concentration of cold ligand that reduces specific binding of radioligand by 50%). The procedure:
Affinity was determined from three independent experiments performed in triplicate and was measured by means of a homologous competitive binding experiment according to Motulsky and Neubig. The IC50 (concentration of cold ligand [somatostatin-28] that reduces specific binding of radioligand by 50%) was determined by competitive binding assays with [^125I]-somatostatin-28 (Amersham Pharmacia Biotech, UK) in CH-157MN meningioma cells. Briefly, cells were incubated into a 24-well cell culture plate (2–2.5×10^5 cells/well) at 37°C for 1 hour in a CO2 incubator with 0.5 nM [^125I]-somatostatin-28 (Amersham Pharmacia Biotech, UK) in the presence of increasing concentrations of somatostatin-28 (0.1 nM-10 µM) in 0.25 ml of binding media (DMEM, 2 mM L-glutamine, 50 units/ml penicillin and 50 µg/ml streptomycin). The reaction medium was aspirated after incubation. Cells were rinsed with 0.5 ml of ice-cold PBS twice and lysed in 0.5 ml of 1 N NaOH for five minutes. The activity in cells was measured in a Packard Cobra II gamma counter. The competitive binding curves were obtained by plotting the [^125I]-somatostatin-28 bound to cells against concentrations of cold ligand. IC50 and maximum numbers of binding sites (Bmax) were calculated using Origin 7.5 software (OriginLab Corporation, Northampton, Massachusetts, USA).

In series [1] the test system is xenografts of a human meningioma cell line (CH-157MN). The experiment in a line: Static PET/CT study: SUVmax and SUV ratios in mice bearing meningioma xenografts. It is filed as in vivo, NUDE NU/NU mice. To be noted: for T/L SUV ratio (tumor-to-liver): SUVmax of tumor normalized to SUVmax of liver, p<0.001; for Visualization of flank tumors in PET/CT images: comparative PET/CT images of the same animal. The procedure:
(§1) Animals were scanned on a small-animal PET scanner (ARGUS PET-CT, SEDECAL, Madrid, Spain) under anesthesia (isoflurane, 3% induction and 1.5% maintenance in 100% O2). Imaging was performed 7–28 days after tumor cell inoculation. […] Half of the animals imaged with ^68Ga-DOTATOC were also imaged with the other two radiotracers in alternate days with respect to ^68Ga-DOTATOC (Figure 1).
(§2) Frames corresponding to the last 60 minutes of the study were summed to form a static image. Images were reconstructed using the 2D–OSEM (Ordered Subset Expectation Maximization) algorithm (16 subsets and two iterations), which yields a spatial resolution for this scanner of 1.45 mm Full Width at Half Maximum (FWHM), with a voxel size of 0.3875×0.3875×0.7750 mm^3. The energy window was 400–700 keV. Decay and deadtime corrections were applied.
Three 3D ROIs were drawn manually on the CT image, one for each tissue of interest (tumor, liver, and muscle), plus a background ROI outside the body area. Since the CT images are intrinsically registered to the PET images, the ROIs drawn on the CT image were directly overlaid on the PET image after correction for the different image sizes. The assessment of PET data included calculation of the maximum standard uptake value (SUVmax) on the static tomographic study and computation of the volume of distribution (Vt) from the dynamic study.
Tumor, muscle, and liver SUVmax values at 30–90 minutes post-injection were recorded. […] The SUVmax of the tumor lesions was normalized to the SUVmax of the liver (T/L) and muscle (T/M). The T/L and T/M SUV ratios were considered markers of the ability of the radiopharmaceutical to localize in the tumor.

A further series deals with SSTR2. Conditions: cited from earlier work.
In series [2] the test system is xenografts of a human meningioma cell line (CH-157MN). The experiment in a line: Dynamic PET study: volume of distribution (Vt) by Logan graphical analysis. The class given is in vivo, NUDE NU/NU mice. To be noted: two-tissue reversible compartmental model, comparison between radiotracers. As to the method:
as §1, §2
Three 3D ROIs were drawn manually on the CT image, one for each tissue of interest (tumor, liver, and muscle), plus a background ROI outside the body area. Since the CT images are intrinsically registered to the PET images, the ROIs drawn on the CT image were directly overlaid on the PET image after correction for the different image sizes. […]
Vt was calculated from dynamic PET data using standard Logan graphical analysis for a two-tissue reversible compartmental model. […]

On the set-up of series [3]: method as in PMID 12937948. To be noted: comparison between tracers; cited from earlier work.
The test system of another series is SSTR3. Conditions: cited from earlier work.
The test system of another series is SSTR5. To be noted: cited from earlier work.
[4] abbreviates: comparison between radiotracers.

Read-outs that look alike come from different tables or passages of the source.

In the case of somatostatin-28, in the series on SSTR in CH-157MN cells, the IC50 is 63.7 ± 32.3 nM.
Turning to “^68Ga-DOTA -Tyr^3-octreotide [^68Ga-DOTATOC]”, in series [1] (setting [4]), the “T/L SUV ratio (tumor-to-liver)” value was “No differences were found between ^68Ga-DOTATATE and ^68Ga-DOTATOC”. Besides, in series [1], the “Visualization of flank tumors in PET/CT images” value is on record as “better visualized”. Moreover, in the series on SSTR2, the “Affinity for SSTR2” value is recorded as “high affinity”.
On to “^68Ga-DOTA-Tyr^3-octreotate [^68Ga-DOTATATE]”, for which the “T/L SUV ratio (tumor-to-liver)” value in series [1] (setting [4]) was “No differences were found between ^68Ga-DOTATATE and ^68Ga-DOTATOC”. Further, the “T/M SUV ratio (tumor-to-muscle)” value in series [1] (SUVmax of tumor normalized to SUVmax of muscle, comparison between radiotracers) was “higher than that of ^68Ga-DOTATOC (p<0.01) and ^68Ga-DOTANOC (p<0.05)”. The “Visualization of flank tumors in PET/CT images” value in series [1] is “better visualized”. The “Affinity for SSTR2” value with SSTR2 was “high affinity”. Besides, the Vt tumor result in series [2] is “higher with ^68Ga-DOTATATE than with ^68Ga-DOTANOC and relatively similar to that of ^68Ga-DOTATOC”.
For “^68Ga-DOTA-Nal^3-octreotide [^68Ga-DOTANOC]”, in series [3], the Lipophilicity result was “more lipophilic than ^68Ga-DOTATATE and ^68Ga-DOTATOC”. The “Affinity for SSTR3” value with SSTR3 was “has affinity for SSTR3 and SSTR5”. Besides, in the series on SSTR2 (comparison with ^68Ga-DOTATOC), the “Affinity for SSTR2” value is recorded as “higher affinity for SSTR2 than ^68Ga-DOTATOC”. In the series with SSTR5, the “Affinity for SSTR5” value was “has affinity for SSTR3 and SSTR5”.
